The target in test [1] is T1, α2 subunit of the human GABAA receptor in association with the beta2 (short) and gamma2 (long) subunits (Homo sapiens, UniProt P18507+P47869+P47870).
T1 construct: expressed in transfected cells; host or cells: HEK-293
The test can be described thus: GABA-induced membrane potential response (FMP dye, FlexStation3) in HEK-293 cells expressing GABAA α2. Format: cell-based. Here is the method: (§1) The compounds are tested on HEK-293 (Human Embryonic Kidney) cells stably expressing the […] or the α5 subunit of the human GABAA receptor in association with the beta2 (short) and gamma2 (long) subunits, thus forming heteropentameric GABAA receptors. The cells are maintained in the presence of a selection of three antibiotics—neomycin, zeocin and puromycin—in a Dulbecco medium (DMEM) containing 10% (v/v) foetal bovine serum The membrane potential is monitored using the fluorescent blue FMP dye (Molecular Devices), following the instructions of the manufacturer. On the day before the experiment, the cells are transferred to 96-well plates (in a density of 50,000 cells/well). 18-24 h later the cells are washed and incubated with the compounds under test plus the FMP dye. Recording of the fluorescence signal in a FlexStation3 plate reader (Molecular Devices, USA) is started 40 min later. After 30 sec of monitoring baseline fluorescence GABA is added to evoke a fluorescent signal reporting depolarisation of the membrane potential across the plasma membrane. The GABA induced responses are recorded for 90 seconds. Data are calculated by subtracting the average baseline value and computing the area under the curve of the fluorescence signal induced by GABA. The IC50 values for α5 and the EC50 values for α2 of the tested compounds are determined from log concentration versus response curves obtained by non-linear regression using SoftMax Pro software (Molecular Devices, USA).

The target in test [2] is T2, α1 subunit of the human GABAA receptor in association with the beta2 (short) and gamma2 (long) subunits (Homo sapiens, UniProt P14867+P18507+P47870).
T2 construct: expressed in transfected cells; host or cells: HEK-293
Kind of test: GABA-induced membrane potential response (FMP dye, FlexStation3) in HEK-293 cells expressing GABAA α1. In kind it is cell-based.

The target in test [3] is T3, α5 subunit of the human GABAA receptor in association with the beta2 (short) and gamma2 (long) subunits (Homo sapiens, UniProt P18507+P31644+P47870).
T3 construct: expressed in transfected cells; host or cells: HEK-293
Kind of test: GABA-induced membrane potential response (FMP dye, FlexStation3) in HEK-293 cells expressing GABAA α5. In kind it is cell-based. Here is the method: as §1

The subject of test [4] is mice. Kind of test: Prepulse inhibition test in mice, PCP-induced PPI disruption. In kind it is in vivo. The conditions noted are these: i.p. administration, FIG. 4. From the text:
FIG. 4. […] Mean values±S.E.M. (n=10-12/group) Student's t-test: vehicle vs. PCP-treated group (***p<0.001) Dunnett's test following ANOVA: PCP-treated vs. PCP+compound treated groups (#:p<0.05).
The startle reaction of a healthy rodents and humans to a strong acoustic stimulus is reduced by the prior presentation of a weak stimulus. The effect of the weak stimulus on the startle response has been termed prepulse inhibition (PPI). Reduced prepulse inhibition is a hallmark feature of attention-processing (sensorimotor gating) deficits in patients with schizophrenia and other psychotic disorders. Acute administration of phencyclidine (PCP), an antagonist of N-methyl D-aspartate (NMDA)-type glutamate receptors, disrupts PPI in rodents and this effect can be prevented by clinically effective antipsychotics. The results are illustrated in FIG. 4.

The subject of test [5] is mice. Kind of test: Light-dark test in mice. In kind it is in vivo. The conditions noted are these: i.p. administration, FIG. 5. Here is the method:
FIG. 5. […] Mean values±S.E.M. (n=11-20/group) Student's t-test: vehicle vs. Diazepam-treated group (*p<0.05) Dunnett test following ANOVA: vehicle-treated vs. compound-treated groups (#:p<0.05).
The light-dark apparatus contains a light (brightly illuminated) and a dark compartment. A small opening connects the two parts. During the 5 minutes test mice were placed individually in the light compartment and allowed to explore the entire apparatus. The activity of animals was measured automatically by interruptions of horizontal and vertical infrared beams. An increase of time spent in the light area (increase in light horizontal time) is interpreted as an anxiolytic effect. The results are illustrated in FIG. 5.

In test [6] the test system is rats. Kind of test: Social interaction test in rats. Format: in vivo. The conditions noted are these: i.p. administration, FIG. 6. From the text:
FIG. 6. […] Mean values±S.E.M. (n=12/group) Kruskal-Wallis ANOVA followed by Mann-Whitney U test: control vs. compound-treated groups (**:p<0.05).
The social interaction test is a model used to measure anxiolytic or anxiogenic behaviour in rodents. When a pair of unfamiliar rats is placed together in the open field the animals show specific social behaviours (sniffing, following, grooming, crawling over and under other rats). Anxiolytic compounds such as benzodiazepines increase in the time spent with social interactions. In our experiment rats were submitted to the social interaction test of anxiety 30 min after drug treatment. The social interaction test consisted of 10 min of social encounters between two animals that received the same pharmacological treatment. The results are illustrated in FIG. 6.

The test system of test [7] is mice. The test can be described thus: Novel object recognition test in mice. Format: in vivo. The conditions noted are these: i.p. administration, FIG. 1 and FIG. 2. The source says: FIG. 1 and FIG. 2. […] Mean values±S.E.M. (n=8-11/group); Dunnett test following ANOVA (*:p<0.05, **:p<0.01, ***:p<0.001). Discrimination index: Duration of new object exploration (s)−Duration of familiar object exploration (s)/Duration of new object exploration (s)+Duration of familiar object exploration (s).
The novel object recognition test evaluates the ability of mice to detect novelty in an otherwise familiar environment. Subsequent a short exploratory period, mice are unable to discriminate between the familiar and the new object 24 hours later. […] Enhancement of the discrimination index is considered as a procognitive effect. The results are illustrated in FIG. 1 and FIG. 2.

[8] abbreviates: HEK 293 cells expressing GABAA α1, expressed as % of GABA EC50, read-out: α1 IC50.
Setting [9] is: HEK 293 cells expressing GABAA α5, expressed as % of GABA EC50, read-out: α5 IC50.

Read-outs that look alike come from different tables or passages of the source. Some results are limits rather than exact numbers.

T1 sequence (P47869 29-451): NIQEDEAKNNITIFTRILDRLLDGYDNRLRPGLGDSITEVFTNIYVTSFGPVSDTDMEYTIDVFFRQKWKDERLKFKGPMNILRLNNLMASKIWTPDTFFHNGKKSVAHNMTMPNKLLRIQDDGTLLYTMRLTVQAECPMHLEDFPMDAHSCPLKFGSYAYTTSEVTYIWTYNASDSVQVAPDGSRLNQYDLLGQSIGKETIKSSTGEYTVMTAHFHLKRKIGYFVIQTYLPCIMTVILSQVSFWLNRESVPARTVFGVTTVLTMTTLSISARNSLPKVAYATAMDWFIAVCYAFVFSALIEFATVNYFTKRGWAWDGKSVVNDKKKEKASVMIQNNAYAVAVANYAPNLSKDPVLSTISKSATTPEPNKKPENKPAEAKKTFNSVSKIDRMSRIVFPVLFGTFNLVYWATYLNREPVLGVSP
T1 sequence (P47870 26-474 isoform P47870-1 partner limits assumed): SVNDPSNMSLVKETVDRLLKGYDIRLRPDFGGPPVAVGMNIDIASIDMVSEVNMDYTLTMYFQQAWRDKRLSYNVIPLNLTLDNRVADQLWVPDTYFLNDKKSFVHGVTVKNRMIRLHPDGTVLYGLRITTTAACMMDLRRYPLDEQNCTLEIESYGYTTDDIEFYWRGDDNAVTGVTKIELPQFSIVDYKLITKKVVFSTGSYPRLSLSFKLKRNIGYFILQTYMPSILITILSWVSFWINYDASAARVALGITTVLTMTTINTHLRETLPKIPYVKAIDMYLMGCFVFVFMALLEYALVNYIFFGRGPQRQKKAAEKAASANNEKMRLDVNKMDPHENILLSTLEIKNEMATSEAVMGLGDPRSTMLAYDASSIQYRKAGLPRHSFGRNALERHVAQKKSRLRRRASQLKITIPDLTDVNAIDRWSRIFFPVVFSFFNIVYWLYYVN
T1 sequence (P18507 40-475 partner): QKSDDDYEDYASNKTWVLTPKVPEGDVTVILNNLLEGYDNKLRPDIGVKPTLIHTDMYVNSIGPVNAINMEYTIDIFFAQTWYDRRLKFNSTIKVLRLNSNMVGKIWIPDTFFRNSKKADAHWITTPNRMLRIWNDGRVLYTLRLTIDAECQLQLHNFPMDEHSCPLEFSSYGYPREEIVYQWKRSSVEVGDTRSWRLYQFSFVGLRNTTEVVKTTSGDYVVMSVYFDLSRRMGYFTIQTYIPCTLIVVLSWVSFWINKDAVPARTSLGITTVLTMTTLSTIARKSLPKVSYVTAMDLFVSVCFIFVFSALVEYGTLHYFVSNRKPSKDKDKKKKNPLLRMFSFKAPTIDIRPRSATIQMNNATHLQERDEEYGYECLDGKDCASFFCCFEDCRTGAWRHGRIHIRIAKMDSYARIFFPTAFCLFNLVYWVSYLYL
T3 sequence (P31644 32-462): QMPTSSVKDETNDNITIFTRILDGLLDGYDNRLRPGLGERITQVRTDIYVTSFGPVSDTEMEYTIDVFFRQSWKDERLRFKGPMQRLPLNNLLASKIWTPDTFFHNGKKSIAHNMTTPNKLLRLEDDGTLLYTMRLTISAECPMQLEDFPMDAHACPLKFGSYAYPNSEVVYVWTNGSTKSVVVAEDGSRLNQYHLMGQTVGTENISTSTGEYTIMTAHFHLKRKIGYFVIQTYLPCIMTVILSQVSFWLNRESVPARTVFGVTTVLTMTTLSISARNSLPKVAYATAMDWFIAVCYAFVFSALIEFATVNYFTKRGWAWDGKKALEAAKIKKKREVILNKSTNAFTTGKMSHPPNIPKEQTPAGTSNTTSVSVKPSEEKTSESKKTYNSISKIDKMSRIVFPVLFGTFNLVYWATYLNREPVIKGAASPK
T3 sequence (P47870 26-474 isoform P47870-1 partner limits assumed): as the sequence (P47870 26-474 isoform P47870-1 partner limits assumed) above
T3 sequence (P18507 40-475 partner): as the sequence (P18507 40-475 partner) above
T2 sequence (P14867 28-456): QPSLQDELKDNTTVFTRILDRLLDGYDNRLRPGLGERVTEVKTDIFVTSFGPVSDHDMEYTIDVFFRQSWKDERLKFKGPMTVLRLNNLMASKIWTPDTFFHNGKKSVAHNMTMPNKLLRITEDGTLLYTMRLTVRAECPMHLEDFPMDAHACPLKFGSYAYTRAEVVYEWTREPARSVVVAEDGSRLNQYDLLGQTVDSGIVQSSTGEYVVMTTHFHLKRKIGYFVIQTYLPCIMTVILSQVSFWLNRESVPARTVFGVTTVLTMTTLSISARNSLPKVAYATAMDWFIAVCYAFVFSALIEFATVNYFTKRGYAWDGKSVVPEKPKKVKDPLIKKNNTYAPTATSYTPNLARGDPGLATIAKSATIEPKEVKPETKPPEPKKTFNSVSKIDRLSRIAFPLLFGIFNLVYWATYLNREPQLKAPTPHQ
T2 sequence (P47870 26-474 isoform P47870-1 partner limits assumed): as the sequence (P47870 26-474 isoform P47870-1 partner limits assumed) above
T2 sequence (P18507 40-475 partner): as the sequence (P18507 40-475 partner) above

The molecule `CCc1c(C2=NN=C(C)Cc3cc4c(cc32)OC(C)C(=O)N4)sc2ccc(Cl)cc12` (racemic) [Example 9, 6-(5-Chloro-3-ethyl-1-benzothiophen-2-yl)-3,9-dimethyl-1,10-dihydro[1,4]oxazino[3,2-h][2,3]benzodiazepin-2(3H)-one] had an EC50 in test [1] of 1000 nM. The results for the IC50 in test [2] (setting [8]) and in test [3] (setting [9]) were > 10000 nM and 700 nM, respectively.

For `CC1=NN=C(c2sc3ccc(Cl)cc3c2C)c2cc3c(cc2C1)NC(=O)C(C)O3` (single isomer, unassigned; (+)) [Example 25, (+)-6-(5-Chloro-3-methyl-1-benzothiophen-2-yl)-3,9-dimethyl-1,10-dihydro[1,4]oxazino[3,2-h][2,3]benzodiazepin-2(3H)-one], the “Effect in the PCP-induced PPI disruption model” value in test [4] is listed as “Ameliorating effect”.

On to `CC1=NN=C(c2sc3cccc(F)c3c2C)c2cc3c(cc2C1)NC(=O)C(C)O3` (centres unmarked) [Example 1, 6-(4-fluoro-3-methyl-1-benzothiophen-2-yl)-3,9-dimethyl-1,10-dihydro[1,4]oxazino[3,2-h][2,3]benzodiazepin-2(3H)-one], for which, in test [1], the concentration giving a half-maximal response (EC50) was 3500 nM. Also, the IC50 in test [2] was > 10000 nM; in test [3], 700 nM.

Consider `CC1=NN=C(c2sc3cc(Cl)ccc3c2C)c2cc3c(cc2C1)NC(=O)C(C)O3` (racemic) [Example 5, 6-(6-Chloro-3-methyl-1-benzothiophen-2-yl)-3,9-dimethyl-1,10-dihydro[1,4]oxazino[3,2-h][2,3]benzodiazepin-2(3H)-one], for which, in test [1], the midpoint of the response, the EC50, lay at 1200 nM. Besides, the concentration for half-maximal inhibition (IC50) is > 10000 nM in test [2] (setting [8]) and 900 nM in test [3] (setting [9]).

Molecule `CC1=NN=C(c2sc3cc(Cl)c(F)cc3c2C)c2cc3c(cc2C1)NC(=O)C(C)O3` (centres unmarked) [Example 8, 6-(6-Chloro-5-fluoro-3-methyl-1-benzothiophen-2-yl)-3,9-dimethyl-1,10-dihydro[1,4]oxazino[3,2-h][2,3]benzodiazepin-2(3H)-one] had an EC50 in test [1] of 1000 nM. The IC50 in test [2] was > 10000 nM; in test [3] it was 3000 nM.

On to `CCc1ccc2oc(C3=NN=C(C)Cc4cc5c(cc43)OC(C)C(=O)N5)c(CC)c2c1` (centres unmarked) [Example 13, 6-(3,5-Diethyl-1-benzofuran-2-yl)-3,9-dimethyl-1,10-dihydro[1,4]oxazino[3,2-h][2,3]benzodiazepin-2(3H)-one], for which the half-maximal effective concentration (EC50) in test [1] stood at 1100 nM. Moreover, the half-inhibitory concentration (IC50) was > 10000 nM in test [2] and 1300 nM in test [3].

Take `CC1=NN=C(c2oc3ccc(Cl)cc3c2C)c2cc3c(cc2C1)NC(=O)C(C)O3` (centres unmarked) [Example 12, 6-(5-Chloro-3-methyl-1-benzofuran-2-yl)-3,9-dimethyl-1,10-dihydro[1,4]oxazino[3,2-h][2,3]benzodiazepin-2(3H)-one]: a half-maximal effect in test [1] (EC50) was put at 1000 nM. Moreover, the IC50 was > 10000 nM in test [2] and 3000 nM in test [3].

On to `CC1=NN=C(c2sc3ccc(Cl)cc3c2C)c2cc3c(cc2C1)NC(=O)C(C)O3` (single isomer, unassigned; (-)) [Example 26, (−)-6-(5-Chloro-3-methyl-1-benzothiophen-2-yl)-3,9-dimethyl-1,10-dihydro[1,4]oxazino[3,2-h][2,3]benzodiazepin-2(3H)-one], for which the “Anxiolytic activity in Light-dark test (activity in the light compartment)” value in test [5] was “Anxiolytic activity”.

Regarding `COc1ccc2oc(C3=NN=C(C)Cc4cc5c(cc43)OC(C)C(=O)N5)c(C)c2c1` (single isomer, unassigned; (+)) [Example 4, (+)-6-(5-Methoxy-3-methyl-1-benzofuran-2-yl)-3,9-dimethyl-1,10-dihydro[1,4]oxazino[3,2-h][2,3]benzodiazepin-2(3H)-one], in test [6], the “Anxiolytic activity in the social interaction model” value is given as “Anxiolytic activity”. Besides, the “Procognitive effect (discrimination index) in the object recognition model” value in test [7] is “Procognitive effects”.

`COc1ccc2oc(C3=NN=C(C)Cc4cc5c(cc43)OC(C)C(=O)N5)c(C)c2c1` (racemic) [Example 2, 6-(5-Methoxy-3-methyl-1-benzofuran-2-yl)-3,9-dimethyl-1,10-dihydro[1,4]oxazino[3,2-h][2,3]benzodiazepin-2(3H)-one] registered a concentration giving a half-maximal response (EC50) in test [1] of 800 nM. The concentration for half-maximal inhibition (IC50) in test [2] is > 10000 nM; in test [3], 800 nM.

As for `CC1=NN=C(c2oc3ccc(O)cc3c2C)c2cc3c(cc2C1)NC(=O)C(C)O3` (centres unmarked) [Example 14, 6-(5-Hydroxy-3-methyl-1-benzofuran-2-yl)-3,9-dimethyl-1,10-dihydro[1,4]oxazino[3,2-h][2,3]benzodiazepin-2(3H)-one], in test [1], the EC50 was found to be 1000 nM. Also, the IC50 in test [2] is 13700 nM; in test [3], 430 nM.

Turning to `CC1=NN=C(c2sc3ccc(Cl)cc3c2C)c2cc3c(cc2C1)NC(=O)C(C)O3` (centres unmarked) [Example 24, 6-(5-Chloro-3-methyl-1-benzothiophen-2-yl)-3,9-dimethyl-1,10-dihydro[1,4]oxazino[3,2-h][2,3]benzodiazepin-2(3H)-one], the “Procognitive effect (discrimination index) in the object recognition model” value in test [7] was “Procognitive effects”.

As a reminder, the EC50 is the concentration giving half of the maximal effect. A high value points to lower potency in that assay. Broadly, the IC50 is the midpoint of a concentration-inhibition curve.
